What was measured:
Type in all cases: in vivo
[1] = tested on: arrowleaf sida (Sida rhombifolia); assay: Test E greenhouse herbicide test, pre- and postemergence
Method in brief: (§1)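 Visual rating vs untreated controls, 0 = no effect, 100 = complete control, after 14–21 d greenhouse. Pre: seeded silt loam treated with surfactant-containing solvent formulation. Post: 1–4-leaf plants (2–18 cm) in peat/vermiculite medium.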

[2] = tested on: crabgrass, Brazilian (Brazilian crabgrass, Digitaria horizontalis); assay: as above
Method in brief: as §1

[3] = tested on: foxtail, giant (giant foxtail, Setaria faberii); assay: as above; conditions: Preemergence
Method in brief: as §1

[4] = tested on: foxtail, green (green foxtail, Setaria viridis); assay: as above; conditions: Preemergence
Method in brief: as §1

[5] = tested on: horseweed (Conyza canadensis); assay: as above
Method in brief: as §1

[6] = tested on: johnsongrass (Sorghum halepense); assay: as above; conditions: Preemergence
Method in brief: as §1

[7] = tested on: kochia (Kochia scoparia); assay: as above
Method in brief: as §1

[8] = tested on: lambsquarters (Chenopodium album); assay: as above; conditions: Preemergence
Method in brief: as §1

[9] = tested on: nutsedge, yellow (yellow nutsedge, Cyperus esculentus); assay: as above; conditions: Preemergence
Method in brief: as §1

[10] = tested on: pigweed, palmer (palmer pigweed, Amaranthus palmeri); assay: as above
Method in brief: as §1

[11] = tested on: ragweed (common ragweed, Ambrosia elatior); assay: as above
Method in brief: as §1

[12] = tested on: sandbur (southem sandbur, Cenchrus echinatus); assay: as above
Method in brief: as §1

[13] = tested on: soybean (Glycine max); assay: as above
Method in brief: as §1

[14] = tested on: velvetleaf (Abutilon theophrasti); assay: as above; conditions: Preemergence
Method in brief: as §1

[15] = tested on: waterhemp (common waterhemp, Amaranthus rudis); assay: as above
Method in brief: as §1

[16] = tested on: waterhemp_RES1 (ALS & Triazine resistant common waterhemp, Amaranthus rudis); assay: Test E greenhouse herbicide test, postemergence
Method in brief: (§2)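 Seedlings were raised in pots of peat moss and vermiculite medium with starter nutrients until they reached the 1- to 4-leaf stage. They were then treated postemergence and held in a greenhouse for 14–21 d. Finally, response was scored visually on a 0–100 control scale.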

[17] = tested on: waterhemp_RES2 (ALS & HPPD resistant common waterhemp, Amaranthus rudis); assay: Test E greenhouse herbicide test, postemergence
Method in brief: as §2

[18] = 62 g ai/ha, Postemergence, scale 0 to 100 (0 no effect, 100 complete control)
[19] = 62 g ai/ha, Preemergence, scale 0 to 100 (0 no effect, 100 complete control)
[20] = 125 g ai/ha, Postemergence, scale 0 to 100 (0 no effect, 100 complete control)
[21] = 125 g ai/ha, Preemergence, scale 0 to 100 (0 no effect, 100 complete control)
[22] = Postemergence, 16 g ai/ha, visual, scale 0 no effect to 100 complete control
[23] = Postemergence, 31 g ai/ha, visual, scale 0 no effect to 100 complete control
[24] = Preemergence, 16 g ai/ha, scale 0 to 100, 0 no effect, 100 complete control
[25] = Preemergence, 31 g ai/ha, scale 0 to 100, 0 no effect, 100 complete control
[26] = 62 g ai/ha, scale 0 to 100 (0 no effect, 100 complete control)
[27] = 125 g ai/ha, scale 0 to 100 (0 no effect, 100 complete control)
[28] = 16 g ai/ha, scale 0 to 100, 0 no effect, 100 complete control
[29] = 31 g ai/ha, scale 0 to 100, 0 no effect, 100 complete control
[30] = 31 g ai/ha, visual, scale 0 no effect to 100 complete control

Structure (SMILES): CCC(=O)Oc1c(C)nn(C)c(=O)c1-c1c(C)sc2ccc(Cl)cc12 [Compound 109]
- Plant response rating, Arrowleaf Sida [1, 18]: 60
- Plant response rating, Arrowleaf Sida [1, 19]: 30
- Plant response rating, Arrowleaf Sida [1, 20]: 80
- Plant response rating, Arrowleaf Sida [1, 21]: 35
- Plant response rating, Arrowleaf Sida [1, 22]: 50
- Plant response rating, Arrowleaf Sida [1, 23]: 65
- Plant response rating, Arrowleaf Sida [1, 24]: 40
- Plant response rating, Arrowleaf Sida [1, 25]: 35
- Plant response rating, Crabgrass, Brazil [2, 18]: 30
- Plant response rating, Crabgrass, Brazil [2, 19]: 40
- Plant response rating, Crabgrass, Brazil [2, 20]: 50
- Plant response rating, Crabgrass, Brazil [2, 21]: 70
- Plant response rating, Crabgrass, Brazil [2, 22]: 10
- Plant response rating, Crabgrass, Brazil [2, 23]: 40
- Plant response rating, Crabgrass, Brazil [2, 24]: 70
- Plant response rating, Crabgrass, Brazil [2, 25]: 60
- Plant response rating, Foxtail, Giant [3, 26]: 40
- Plant response rating, Foxtail, Giant [3, 27]: 80
- Plant response rating, Foxtail, Giant [3, 28]: 0
- Plant response rating, Foxtail, Giant [3, 29]: 35
- Plant response rating, Foxtail, Green [4, 26]: 40
- Plant response rating, Foxtail, Green [4, 27]: 60
- Plant response rating, Foxtail, Green [4, 28]: 0
- Plant response rating, Foxtail, Green [4, 29]: 0
- Plant response rating, Horseweed [5, 18]: 90
- Plant response rating, Horseweed [5, 19]: 100
- Plant response rating, Horseweed [5, 20]: 85
- Plant response rating, Horseweed [5, 21]: 100
- Plant response rating, Horseweed [5, 22]: 60
- Plant response rating, Horseweed [5, 23]: 80
- Plant response rating, Horseweed [5, 24]: 0
- Plant response rating, Horseweed [5, 25]: 100
- Plant response rating, Johnsongrass [6, 27]: 40
- Plant response rating, Johnsongrass [6, 28]: 0
- Plant response rating, Johnsongrass [6, 29]: 0
- Plant response rating, Kochia [7, 18]: 95
- Plant response rating, Kochia [7, 20]: 100
- Plant response rating, Kochia [7, 21]: 100
- Plant response rating, Kochia [7, 22]: 80
- Plant response rating, Kochia [7, 23]: 95
- Plant response rating, Kochia [7, 24]: 0
- Plant response rating, Kochia [7, 25]: 10
- Plant response rating, Lambsquarters [8, 27]: 98
- Plant response rating, Lambsquarters [8, 28]: 0
- Plant response rating, Lambsquarters [8, 29]: 95
- Plant response rating, Nutsedge, Yellow [9, 27]: 40
- Plant response rating, Nutsedge, Yellow [9, 28]: 0
- Plant response rating, Nutsedge, Yellow [9, 29]: 0
- Plant response rating, Pigweed, Palmer [10, 18]: 65
- Plant response rating, Pigweed, Palmer [10, 20]: 100
- Plant response rating, Pigweed, Palmer [10, 21]: 85
- Plant response rating, Pigweed, Palmer [10, 22]: 60
- Plant response rating, Pigweed, Palmer [10, 23]: 50
- Plant response rating, Pigweed, Palmer [10, 24]: 0
- Plant response rating, Pigweed, Palmer [10, 25]: 20
- Plant response rating, Ragweed [11, 18]: 90
- Plant response rating, Ragweed [11, 20]: 95
- Plant response rating, Ragweed [11, 21]: 100
- Plant response rating, Ragweed [11, 22]: 80
- Plant response rating, Ragweed [11, 23]: 85
- Plant response rating, Ragweed [11, 24]: 0
- Plant response rating, Ragweed [11, 25]: 5
- Plant response rating, Sandbur [12, 20]: 70
- Plant response rating, Sandbur [12, 21]: 75
- Plant response rating, Sandbur [12, 22]: 60
- Plant response rating, Sandbur [12, 23]: 40
- Plant response rating, Sandbur [12, 24]: 0
- Plant response rating, Sandbur [12, 25]: 40
- Plant response rating, Soybean [13, 20]: 20
- Plant response rating, Soybean [13, 21]: 0
- Plant response rating, Soybean [13, 22]: 0
- Plant response rating, Soybean [13, 23]: 0
- Plant response rating, Soybean [13, 24]: 0
- Plant response rating, Soybean [13, 25]: 0
- Plant response rating, Velvetleaf [14, 27]: 65
- Plant response rating, Velvetleaf [14, 28]: 0
- Plant response rating, Velvetleaf [14, 29]: 0
- Plant response rating, Waterhemp [15, 20]: 90
- Plant response rating, Waterhemp [15, 21]: 98
- Plant response rating, Waterhemp [15, 22]: 60
- Plant response rating, Waterhemp [15, 23]: 75
- Plant response rating, Waterhemp [15, 24]: 0
- Plant response rating, Waterhemp [15, 25]: 0
- Plant response rating, Waterhemp_RES1 ([16]; 16 g ai/ha, visual, scale 0 no effect to 100 complete control): 60
- Plant response rating, Waterhemp_RES1 [16, 30]: 70
- Plant response rating, Waterhemp_RES1 [16, 27]: 90
- Plant response rating, Waterhemp_RES2 [17, 30]: 50
- Plant response rating, Waterhemp_RES2 [17, 27]: 60
